Data published in US4255435A, “Triazole compounds” (priority 1980, dated 1981).

What was measured:
[1] = test system: larvae of the diamond back moth (Plutella maculipennis); assay: Mortality of larvae of the diamond back moth on treated cabbage leaf; format: in vivo; conditions: Table 1; cabbage leaf dipped in test solution, mortality after 24 + 24 hours, two replicates; 2880 min
Experimental: (§1) Ten larvae were placed in a tube together with a square inch of cabbage leaf which had been dipped in the test solution and allowed to dry. After twenty-four hours untreated cabbage was added for food and after a further twenty-four hours an assessment was made of the mortality of the larvae.
Two replicates were carried out for each test compound and test solutions of varying concentrations employed so that an LD50 value could be calculated.

[2] = test system: larvae of the cabbage white butterfly (Pieris brassicae); assay: Mortality of larvae of the cabbage white butterfly on treated cabbage leaf; format: in vivo; conditions: Table 3; cabbage leaf dipped in test solution, mortality after 24 + 24 hours, two replicates; 2880 min
Experimental: This example illustrates the activity of compounds of the invention against larvae of the cabbage white butterfly (Pieris brassicae).
as §1

[3] = test system: eggs of the cabbage root fly (Erioischia brassicae); assay: Egg hatch of cabbage root fly eggs in test solution; format: in vivo; conditions: Table 4; eggs stored six days, egg hatch counted, two replicates; 8640 min
From the text: This example illustrates the activity of compounds of the invention against the eggs of the cabbage root fly (Erioischia brassicae).
The eggs were then stored for six days and the egg hatch then counted.

[4] = test system: aphid Megoura viciae; assay: Aphids on sprayed broad bean plants; format: in vivo; conditions: Table 6; sprayed infested broad bean plants, 24 hours
Experimental: Broad bean plants 3 to 5 cm. high were infested with aphids and then sprayed with an aqueous dispersion containing varying concentrations of test compound. Each plant was kept under a lamp glass for 24 hours and then examined. In this way an LD50 value for the compounds was calculated.

[5] = test system: nematode Meloidogyne incognita incognita; assay: Root knots of tomato plants in nematode-infested treated soil; format: in vivo; conditions: 100 parts per million per unit volume of soil, 30° C., ten days; untreated controls average more than 20 knots
Experimental: This example illustrates the activity of compounds of the invention against the nematode Meloidogyne incognita incognita.
Small tomato plants were transferred to containers with infested soil. Sufficient test compound to give a concentration of 100 parts per million per unit volume of soil was poured onto the soil and the containers suspended in warm water at 30° C.
After ten days the plants were knocked out of the containers and the roots washed clean, the number of knots being noted. The latter was an indication of activity and a low score indicated high activity.

[6] = test system: larvae of the codling moth (Cydia pomonella); assay: Codling moth larvae on sprayed apple (number of strikes); format: in vivo; conditions: Table 5, after five days, two replicates, 7200 min
From the text: This example illustrates the activity of compounds of the invention against the larvae of the codling moth (Cydia pomonella).
An apple sprayed with test solution was allowed to dry and a perspex ring of 1 inch diameter was attached to the apple. Ten larvae were then placed on the apple surface and contained within the ring by means of a muslin covering. After five days an assessment of mortality was made by counting the number of strikes (i.e. the number of entry holes) made by the larvae.

[7] = test system: insects; assay: Insecticidal activity; format: in vivo; conditions: in words
[8] = Mammalian toxicity; format: in vivo; conditions: in words
[9] = acute
[10] = acute; remark: listed apart in the source

Row | Compound | ACTIVITY LD50 [1] [p.p.m.] | ACTIVITY LD50 [2] [p.p.m.] | ACTIVITY LD50 [3] [p.p.m.] | ACTIVITY LD50 [4] [p.p.m.] | number of knots on roots [5] [knots] | ACTIVITY LD50 [6] [p.p.m.] | insecticidal activity [7] | mammalian toxicity [8] | mammalian toxicity when presented as a powder formulation ([8]; (wettable) powder formulation, listed as first compound) | mammalian toxicity when presented as a powder formulation ([8]; wettable powder formulation) | Oral toxicity (rat) LD50 [9] [mg/kg] | Dermal toxicity (rat) LD50 (acute, dermal, rat) [mg/kg] | effect of wettable powder formulation on dermal toxicity (in words, wettable powder formulation) | Oral toxicity (mouse) LD50 [10] [mg/kg]
1 | C#CCSc1nc(C(C)(C)C)nn1C(=O)N(C)C [methyl methyl t-butyl prop-2-ynyl, 1(2)-N,N-dimethylcarbamoyl-3-t-butyl-5-prop-2-ynylthio-1,2,4-triazole] | 33 | 27 | 0.8 | 1.1 | ≤ 2 |  |  |  |  |  |  |  |  | 
2 | 1(2)-N,N-dimethylcarbamoyl-3-t-butyl-5-vinylthio-1,2,4-triazole [methyl methyl t-butyl vinyl] | 160 |  |  | 0.61 | ≤ 2 |  |  |  |  |  |  |  |  | 
3 | 1(2)-N,N-dimethylcarbamoyl-3-t-butyl-5-ethylthio-1,2,4-triazole [methyl methyl t-butyl ethyl] |  |  |  | 0.71 | ≤ 2 | 24 |  |  |  |  |  |  |  | 
4 | C#CCSc1nc(C(C)C)nn1C(=O)N(C)C [methyl methyl isopropyl prop-2-ynyl, 1(2)-N,N-dimethylcarbamoyl-3-isopropyl-5-prop-2-ynylthio-1,2,4-triazole] | 87 | 31 |  | 1.5 |  |  |  |  |  |  |  |  |  | 
5 | CSc1nc(C(C)(C)C)nn1C(=O)N(C)C [methyl methyl t-butyl methyl, 1-N,N-dimethylcarbamoyl-3-t-butyl-5-methylthio-1,2,4-triazole] |  |  |  |  | ≤ 2 |  | insecticidally active | too high to permit the more widespread use |  |  |  |  |  | 
6 | 1(2)-N,N-dimethylcarbamoyl-3-isopropyl-5-methylthio-1,2,4-triazole [methyl methyl isopropyl methyl] | 160 | 59 |  | 1.1 |  | 37 |  |  |  |  |  |  |  | 
7 | 1(2)-N,N-dimethylcarbamoyl-3-t-butyl-5-but-2-enylthio-1,2,4-triazole [methyl methyl t-butyl but-2-enyl] | 220 | 27 | 1.2 | 0.19 | ≤ 2 | 10 | high insecticidal activity | low mammalian toxicity | sufficiently low | sufficiently low mammalian toxicity | 40 to 80 | 40 | reduces the dermal toxicity | 80 to 160
